# Tests used:
# HIV-1 Nef dimerization = HIV-1 Nef dimerization (Human immunodeficiency virus type 1 group M subtype B, UniProt P03407); details: up to a final DMSO concentration of 2.5%
# 293T cells = details: final DMSO concentration
# Chain of HIV-1 Nef dimerization (P03407 2-210): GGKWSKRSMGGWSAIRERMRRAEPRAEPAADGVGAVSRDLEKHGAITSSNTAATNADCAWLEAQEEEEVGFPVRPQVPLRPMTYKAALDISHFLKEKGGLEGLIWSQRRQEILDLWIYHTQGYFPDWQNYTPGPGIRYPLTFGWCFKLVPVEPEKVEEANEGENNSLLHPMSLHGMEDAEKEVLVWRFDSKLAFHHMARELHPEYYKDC
smiles,measurement,setting,value
C[S+](C)[O-] [DMSO],BiFC/mRFP ratio of WT2A,HIV-1 Nef dimerization,essentially unchanged
same,IC50 of cell loss (cell density),293T cells,approximately 1%
same,concentration causing cell loss,293T cells,above 0.6%

# Reference: PMC4006692 (Journal of biomolecular screening, 2013)
